Reference: patent publication US20260191874A1, “FUSED AMINO PYRIMIDINE COMPOUNDS FOR TREATMENT OF AUTISM SPECTRUM DISORDER, OBSESSIVE COMPULSIVE DISORDER AND TICS” (Ovid Therapeutics Inc., priority 2024, published 2026)

Biological target: T1, KCC2 (Homo sapiens, UniProt Q9H2X9)
T1 construct: expressed in transfected cells; host or cells: HEK-293 (ATCC CRL-1573)
T1 sequence (Q9H2X9 1-1116 isoform Q9H2X9-2): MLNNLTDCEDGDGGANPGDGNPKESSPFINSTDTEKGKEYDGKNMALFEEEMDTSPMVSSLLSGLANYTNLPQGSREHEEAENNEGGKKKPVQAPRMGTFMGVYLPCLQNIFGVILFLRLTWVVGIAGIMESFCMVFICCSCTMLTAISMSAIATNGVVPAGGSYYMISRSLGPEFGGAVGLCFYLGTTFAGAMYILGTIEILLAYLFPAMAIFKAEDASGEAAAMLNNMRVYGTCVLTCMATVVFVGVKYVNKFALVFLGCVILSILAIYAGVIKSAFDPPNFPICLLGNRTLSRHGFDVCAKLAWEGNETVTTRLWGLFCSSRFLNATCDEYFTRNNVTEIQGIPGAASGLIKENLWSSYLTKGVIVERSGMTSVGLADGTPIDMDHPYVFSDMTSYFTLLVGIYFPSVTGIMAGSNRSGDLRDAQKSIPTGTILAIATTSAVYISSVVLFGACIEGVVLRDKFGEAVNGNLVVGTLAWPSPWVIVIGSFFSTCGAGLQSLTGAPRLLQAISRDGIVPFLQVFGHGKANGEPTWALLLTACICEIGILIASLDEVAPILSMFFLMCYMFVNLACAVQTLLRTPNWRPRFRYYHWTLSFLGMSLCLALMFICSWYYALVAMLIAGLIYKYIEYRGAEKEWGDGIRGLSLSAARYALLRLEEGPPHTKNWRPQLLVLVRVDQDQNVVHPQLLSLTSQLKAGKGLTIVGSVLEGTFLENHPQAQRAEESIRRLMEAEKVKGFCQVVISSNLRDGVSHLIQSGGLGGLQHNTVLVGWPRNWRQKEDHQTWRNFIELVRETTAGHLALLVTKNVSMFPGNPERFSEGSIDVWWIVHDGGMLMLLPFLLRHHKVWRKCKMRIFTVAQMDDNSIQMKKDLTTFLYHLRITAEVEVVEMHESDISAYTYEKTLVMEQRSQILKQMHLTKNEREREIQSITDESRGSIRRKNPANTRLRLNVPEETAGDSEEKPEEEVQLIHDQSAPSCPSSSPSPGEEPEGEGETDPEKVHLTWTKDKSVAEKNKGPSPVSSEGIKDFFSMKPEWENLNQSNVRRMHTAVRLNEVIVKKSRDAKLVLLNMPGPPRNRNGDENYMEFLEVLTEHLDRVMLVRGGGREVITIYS
Assay: Cell surface biotinylation of KCC2 in HEK-293 cells
Assay type: cell-based
Conditions: 15 min
Description: Cell Culture and biotinylation. HEK-293 cells were purchased from ATCC (CRL-1573) and transfected with human KCC2 and GFP expression plasmids using Lipofectamine 2000. Cells were utilized for experimentation 48-72 h following transfection. Cells were biotinylated at 4° C. using NHS-Biotin. Following lysis and purification on immobilized avidin beads, cell surface and total fractions were subject to immunoblotting as outlined previously (Conway et al., 2017, supra).
The reliability of the biotinylation procedure was assessed via immunoblotting with antibodies against the cytosolic protein actin. Actin was present in the total lysates but was absent from the surface fractions (FIG. 2C).

For `C[C@@H]1CN(c2nc3c(c(Nc4ccc(C5CCCCC5)cc4)n2)COC3)CCO1` [Compound A, (R)—N-(4-cyclohexylphenyl)-2-(2-methylmorpholino)-5,7-dihydrofuro[3,4-d]pyrimidin-4-amine], the “level of KCC2 on the plasma membrane (surface/total)” value (0.3 μM) was 94.5±8.4 % of control and the “level of KCC2 on the plasma membrane (surface/total)” value (3 μM) was 104.7±8.4 % of control.
